Several values for one entry are separate records, joined by “and”; a condition that tells them apart may be missing. Equal entries are not always repeated.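 Protocol summary: plate cells (96-well), add compound at 5 concentrations, incubate 48 h, interpolate endpoints linearly. GI50 is the concentration that inhibits growth by half. TGI marks complete inhibition of growth.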
Assays:
Assay in all cases: NCI tumour cell line growth inhibition, 48 h
SF-295 CNS = system: SF-295 CNS
HCT-15 colon = system: HCT-15 colon
HL-60(TB) leukemia = system: HL-60(TB) leukemia
ACHN renal = system: ACHN renal
SK-OV-3 ovarian = system: SK-OV-3 ovarian
SNB-19 CNS = system: SNB-19 CNS
NCI-H460 lung = system: NCI-H460 lung
OVCAR-8 ovarian = system: OVCAR-8 ovarian
K-562 leukemia = system: K-562 leukemia

SMILES	TGI (SF-295 CNS)	TGI (HCT-15 colon)	TGI (HL-60(TB) leukemia) [µM]	TGI (ACHN renal) [µM]	TGI (SK-OV-3 ovarian) [µM]	TGI (SNB-19 CNS)	TGI (NCI-H460 lung)	TGI (OVCAR-8 ovarian)	TGI (K-562 leukemia)	GI50 (HCT-15 colon) [µM]	GI50 (HL-60(TB) leukemia) [µM]	GI50 (K-562 leukemia) [µM]	GI50 (ACHN renal) [µM]	GI50 (SK-OV-3 ovarian) [µM]	GI50 (SNB-19 CNS) [µM]	GI50 (NCI-H460 lung) [µM]	GI50 (OVCAR-8 ovarian) [µM]
COc1cccc(C=O)c1C(=O)c1cc(O)ccc1O	> 100 µM	41.3 µM	> 100	31.1	> 100	> 100 µM	> 100 µM	46.5 µM									
COc1ccc(Nc2nc3cc(C(F)(F)F)ccc3nc2-c2ccccc2)cc1OC	53.3 µM	> 100 µM		> 100	66.5		> 100 µM	> 100 µM	> 100 µM								
COc1cccc2c1OC1Sc3ccccc3-c3nn(-c4ccccc4)c-2c31 (stereo not given)	> 100 µM		> 100	> 100	> 100		> 100 µM	> 100 µM	> 100 µM								
O=[N+]([O-])c1cc(-c2nc(=S)[nH][nH]2)ccc1O	> 100 µM	31 µM	> 100	> 100	> 100	> 100 µM	> 100 µM		> 100 µM								
O=C(CN1CCCC1=O)CS(=O)(=O)c1ccccc1	> 100 µM		> 100	> 100		> 100 µM	> 100 µM	> 100 µM	> 100 µM								
N#CCCN(CCC#N)c1ccc(/C=C(/NC(=O)c2cc([N+](=O)[O-])ccc2Cl)C(=O)NN)cc1	> 100 µM	> 100 µM		> 100	> 100	> 100 µM	> 100 µM	> 100 µM	> 100 µM								
Nc1nc(N)c(CCCCc2ccccc2)c(C=O)n1	64.7 µM	45.4 µM		51.6	95.5	38.3 µM	> 100 µM	45 µM	24.3 µM								
CC(=O)c1ccccc1NC(=O)C(=O)C(C(=O)c1ccc2ccccc2c1)C1OC(=O)c2ccccc21 (stereo not given)		40.1 µM	43.6	> 100	> 100	35.3 µM	> 100 µM	94.8 µM	70.3 µM								
c1ccc2c(c1)SC(=C1Sc3ccccc3S1)S2	> 100 µM	> 100 µM		> 100	> 100	> 100 µM	> 100 µM	> 100 µM	> 100 µM								
OCC1OC2c3ccccc3COC2C1OCc1ccccc1 (stereo not given)	> 100 µM	> 100 µM		> 100	> 100	> 100 µM	> 100 µM	> 100 µM	> 100 µM								
CCC12CCCN(Cc3ccccc3)C1c1c(n(C)c3ccccc13)C(CO)C2 (stereo not given)	64.7 µM	78.1 µM	169		194	186 µM	73.8 µM	186 µM	107 µM								
[O-]/N=[N+](/[O-])C1CCCCC1=[N+]1CCOCC1 (stereo not given)	> 100 µM		> 100	> 100	> 100	> 100 µM	> 100 µM	> 100 µM	> 100 µM								
CN1C(=O)CC2(C)c3cc(O)cc(Br)c3N(C)C12 (stereo not given)	> 100 µM	> 100 µM		> 100	> 100	> 100 µM	> 100 µM	> 100 µM	> 100 µM								
CC1(C)NC(=O)N(CCCCCCN2C(=O)NC(C)(C)C2=O)C1=O		> 100 µM		> 100	> 100	> 100 µM	> 100 µM	> 100 µM	> 100 µM								
COc1cc2c(c(O)c1Cl)C(=O)c1c(O)cc(C[C@H](C)O)cc1[C@H]2[C@H]1c2cc(C[C@H](C)O)cc(O)c2C(=O)c2c1cc(OC)c(Cl)c2O	5.91 µM and 53.6 µM	75 µM and > 100 µM				75 µM and > 100 µM	17.7 µM and 52.1 µM	75 µM and > 100 µM	75 µM and > 100 µM								
C/C(CCn1[nH]c(=O)ccc1=O)=N\NC(=O)C(N)=O	> 100 µM	> 100 µM	> 100	> 100		> 100 µM	> 100 µM	> 100 µM	> 100 µM								
CCc1ccccc1NC(=O)C(=O)C(C#N)c1ccccc1Cl (stereo not given)	> 100 µM		> 100	> 100		> 100 µM	33.1 µM	> 100 µM									
CC(C)(C)N/N=C(\C(=O)Nc1cccc(Cl)c1)C1C(=O)Nc2ccccc2S1=O (stereo not given)	> 100 µM	> 100 µM	> 100	> 100	> 100	> 100 µM	> 100 µM	> 100 µM									
O=C(Cc1nc2ccc(C(=O)c3ccccc3)cc2[nH]c1=O)C(=O)Nc1nc2ccccc2[nH]1	> 100 µM	> 100 µM	> 100	> 100	> 100	> 100 µM	> 100 µM	> 100 µM									
O=C1C(=c2ccc(=C3C(=O)c4ccc([N+](=O)[O-])cc4[N+]3=O)cc2)N([O-])c2cc([N+](=O)[O-])ccc21		> 100 µM	> 100	> 100	> 100	> 100 µM	> 100 µM	> 100 µM	> 100 µM	> 100	> 100	> 100	> 100	> 100	> 100	> 100	> 100

Source: PubChem BioAssay (NCI)
